Results taken from patent US4464385A, “Treatment of diabetic complications with hydantoins” (Alcon Laboratories, Inc., priority 1982, dated 1984).
pIC50: −log10 of the molar value.

Experiments:
[1] = target: T1, aldose reductase enzyme obtained from human placenta (Homo sapiens, UniProt P15121); experiment: Inhibition of partially purified aldose reductase from human placenta; assay type: biochemical; details: for pIC50: HUMAN, human placenta enzyme, read-out: IC50 (concentration of drug that inhibits 50% of the enzyme activity)
T1 construct: partially purified aldose reductase enzyme obtained from rat lens or human placenta; from tissue; host or cells: human placenta
Procedure: The spiro-hydantoin compounds of Preparations C and D were tested for their ability to reduce or inhibit aldose reductase enzyme activity via the procedures of P. F. Kador et. al. as described in Biophysical Chemistry, 8 (1978) 81-85 and P. F. Kador et. al. as described in Documenta Ophthamologicia, 18 (1979) 117. In every case the […] employed was partially purified aldose reductase enzyme obtained from rat lens or human placenta.

aldose reductase = experiment: Aldose reductase inhibition / potency (general statement)

| pIC50 [1] | in vitro inhibition of human placental aldose reductase ([1]; in vitro) | Compound | activity relative to the methylthio derivative (aldose reductase) | potency relative to the resolved 6-fluoro compound (aldose reductase) |
| --- | --- | --- | --- | --- |
| 4.92 | inhibit human placental aldose reductase | C[S+]([O-])c1ccc2c(c1)C1(CCO2)NC(=O)NC1=O (centres unmarked) [D, spiro-(6-methylsulfinylchroman-4,4'-imidazolidine)-2',5'-dione] | lacked the activity of the methylthio derivative |  |
| 6.18 |  | dl-spiro-(6-methylthio-chroman-4,4'-imidazolidine)-2',5'-dione |  | potency similar to the resolved 6-fluoro compound |
